Source: ChEMBL document CHEMBL3727346, “6-(pyridinyl)-4-pyrimidone derivates as tau protein kinase 1 inhibitors” (2011)
Calls of active or inactive are those of the source. How the calls were made is not given here.

Columns and labels:
[1] = target: Glycogen synthase kinase-3 beta splice variant X1 (Bos taurus, UniProt A0A059UE90); assay: (§1) Inhibition of bovine cerebral TPK1 assessed as reduction in P-GS1 phosphorylation using [32gammaP]ATP incubated for 2 hrs by liquid scintillation counting method
[2] = target: Glycogen synthase kinase-3 beta splice variant X1 (Bos taurus) (UniProt A0A059UE90); assay: as §1

IC50 [1] [nM] | inhibition [2] | SMILES
1.2 |  | CC(C)Oc1ccc(-c2ccc([C@H]3CN(c4nc(-c5ccncc5F)cc(=O)n4C)CCN3)cc2)cc1
3.7 |  | Cn1c(N2CCN[C@@H](c3ccc(N4CCCCC4)cc3)C2)nc(-c2ccncc2F)cc1=O
1.1 |  | Cn1c(N2CCO[C@@H](c3ccc(OCCN4CCOCC4)cc3)C2)nc(-c2ccncc2F)cc1=O
0.73 |  | COc1ccc(-c2ccc([C@H]3CN(c4nc(-c5ccncc5F)cc(=O)n4C)CCN3)cc2)cc1
0.53 |  | Cn1c(N2CCN[C@@H](c3ccc(N4CCN(c5ccccc5)CC4)cc3)C2)nc(-c2ccncc2F)cc1=O
6.4 |  | CC(=O)N1CCC(Oc2ccc([C@H]3CN(c4nc(-c5ccncc5F)cc(=O)n4C)CCO3)cc2)CC1
7.4 |  | Cn1c(N2CCO[C@@H](c3ccc(C(=O)N4CCOCC4)cc3)C2)nc(-c2ccncc2F)cc1=O
2.9 |  | Cc1nc(-c2ccc([C@H]3CN(c4nc(-c5ccncc5F)cc(=O)n4C)CCN3)cc2)no1
2.7 |  | Cn1c(N2CCO[C@@H](c3ccc(N[C@@H]4CCOC4)cc3)C2)nc(-c2ccncc2F)cc1=O
2.9 |  | Cn1c(N2CCO[C@@H](c3ccc(N)cc3)C2)nc(-c2ccncc2F)cc1=O
4.8 |  | Cn1c(N2CCN[C@@H](c3ccc(-c4ncon4)cc3)C2)nc(-c2ccncc2F)cc1=O
11 |  | CN(C)C(=O)Nc1ccc([C@H]2CN(c3nc(-c4ccncc4F)cc(=O)n3C)CCO2)cc1
 | Active | CCN(CC)c1ccc([C@H]2CN(c3nc(-c4ccncc4F)cc(=O)n3C)CCO2)cc1
 | Active | Cn1c(N2CCO[C@@H](c3ccc(OCCN4CCCC4)cc3)C2)nc(-c2ccncc2F)cc1=O
 | Active | Cn1c(N2CCN[C@@H](c3ccc(N4CC[C@H](C(N)=O)C4)cc3)C2)nc(-c2ccncc2F)cc1=O
 | Active | CC(C)Nc1ccc([C@H]2CN(c3nc(-c4ccncc4F)cc(=O)n3C)CCO2)cc1
 | Active | CN(C)C(=O)c1ccc([C@H]2CN(c3nc(-c4ccncc4F)cc(=O)n3C)CCO2)cc1
 | Active | CCOc1ccc(-c2ccc([C@H]3CN(c4nc(-c5ccncc5F)cc(=O)n4C)CCN3)cc2)cc1

IC50 [1] [nM] | inhibition [2] | SMILES
 | Active | CCCCOc1ccc(-c2ccc([C@H]3CN(c4nc(-c5ccncc5F)cc(=O)n4C)CCN3)cc2)cc1
 | Active | Cn1c(N2CCO[C@@H](c3ccc(N(C(=O)C4CC4)C4CCCCC4)cc3)C2)nc(-c2ccncc2F)cc1=O
 | Active | Cn1c(N2CCO[C@@H](c3ccc(N(C4CCCCC4)S(C)(=O)=O)cc3)C2)nc(-c2ccncc2F)cc1=O
 | Active | CC(=O)N(c1ccc([C@H]2CN(c3nc(-c4ccncc4F)cc(=O)n3C)CCO2)cc1)C(C)C
 | Active | CN1CCC2(CCN(c3ccc([C@H]4CN(c5nc(-c6ccncc6F)cc(=O)n5C)CCN4)cc3)CC2)C1
 | Active | Cn1c(N2CCO[C@@H](c3ccc(CO)cc3)C2)nc(-c2ccncc2F)cc1=O
 | Active | Cn1c(N2CCN[C@@H](c3ccc(N4CC[C@H](N5CCCC5)C4)cc3)C2)nc(-c2ccncc2F)cc1=O
 | Active | Cn1c(N2CCO[C@@H](c3ccc(F)cc3)C2)nc(-c2ccncc2F)cc1=O
 | Active | CC(C)Oc1ccc([C@H]2CN(c3nc(-c4ccncc4F)cc(=O)n3C)CCO2)cc1
 | Active | CN(C)S(=O)(=O)c1ccc([C@H]2CN(c3nc(-c4ccncc4F)cc(=O)n3C)CCO2)cc1
 | Active | Cn1c(N2CCNC(c3ccc(-c4ncon4)cc3)C2)nc(-c2ccncc2F)cc1=O (stereo not given)
 | Active | Cn1c(N2CCN[C@@H](c3ccc(N4CCC(N5CCCC5)CC4)cc3)C2)nc(-c2ccncc2F)cc1=O
 | Active | CC(C)N1CCN(c2ccc([C@H]3CN(c4nc(-c5ccncc5F)cc(=O)n4C)CCN3)cc2)CC1
 | Active | CN(C)C1CCN(c2ccc([C@H]3CN(c4nc(-c5ccncc5F)cc(=O)n4C)CCN3)cc2)CC1
 | Active | Cn1c(N2CCN[C@@H](c3ccc(N4CCOCC4)cc3)C2)nc(-c2ccncc2F)cc1=O
 | Active | Cn1c(N2CCN[C@@H](c3ccc(-c4ccc(S(C)(=O)=O)cc4)cc3)C2)nc(-c2ccncc2F)cc1=O
 | Active | CN(C)CCOc1ccc([C@H]2CN(c3nc(-c4ccncc4F)cc(=O)n3C)CCO2)cc1

Second part, the compound before the results:

SMILES | IC50 [1] [nM] | inhibition [2]
COc1ccc(NC(C)=O)cc1[C@H]1CN(c2nc(-c3ccncc3F)cc(=O)n2C)CCO1 | 0.48 | 
Cc1cc(C2CN(c3nc(-c4ccncc4F)cc(=O)n3C)CCO2)ccc1Br (stereo not given) | 0.51 | 
COC(=O)Nc1ccc([C@H]2CN(c3nc(-c4ccncc4F)cc(=O)n3C)CCO2)cc1 | 1.2 | 
Cn1c(N2CCO[C@@H](c3ccc(NC(=O)C4CCCCC4)cc3)C2)nc(-c2ccncc2F)cc1=O | 2.2 | 
Cn1c(N2CCOC(c3ccc4c(c3)CCC(=O)N4)C2)nc(-c2ccncc2F)cc1=O (racemic) | 1.2 | 
Cn1c(N2CCOC(c3ccc4c(c3)CC(=O)N4)C2)nc(-c2ccncc2F)cc1=O (racemic) |  | Active
Cn1c(N2CCO[C@@H](c3c(F)cccc3Cl)C2)nc(-c2ccncc2F)c(F)c1=O |  | Active
Cn1c(N2CCO[C@@H](c3ccc(Nc4cccnc4)cc3)C2)nc(-c2ccncc2F)cc1=O |  | Active
Cn1c(N2CCO[C@@H](c3ccc(F)cc3)C2)nc(-c2ccncc2F)c(F)c1=O |  | Active
Cn1c(N2CCOC(c3cccc(-c4nccs4)c3)C2)nc(-c2ccncc2F)cc1=O (stereo not given) |  | Active
CN1CCN(CCOc2ccc([C@H]3CN(c4nc(-c5ccncc5F)cc(=O)n4C)CCO3)cc2)CC1 |  | Active
CCN(CC)C(=O)Nc1ccc([C@H]2CN(c3nc(-c4ccncc4F)cc(=O)n3C)CCO2)cc1 |  | Active
Cn1c(N2CCO[C@@H](c3ccc(N(C(=O)c4ccccc4)C4CCCCC4)cc3)C2)nc(-c2ccncc2F)cc1=O |  | Active
Cc1nnc(-c2ccc([C@H]3CN(c4nc(-c5ccncc5F)cc(=O)n4C)CCO3)cc2)o1 |  | Active
Cn1c(N2CCOC(c3ccc4c(c3)NC(=O)CO4)C2)nc(-c2ccncc2F)cc1=O (racemic) |  | Active
COc1ccc(C#N)cc1[C@H]1CN(c2nc(-c3ccncc3F)c(F)c(=O)n2C)CCO1 |  | Active
COc1ccc(C(C)(C)O)cc1[C@H]1CN(c2nc(-c3ccncc3F)cc(=O)n2C)CCO1 |  | Active
Cn1c(N2CCO[C@@H](c3ccc(NS(C)(=O)=O)cc3)C2)nc(-c2ccncc2F)cc1=O |  | Active
Cn1c(N2CCO[C@@H](c3ccc(NS(=O)(=O)Cc4ccccc4)cc3)C2)nc(-c2ccncc2F)cc1=O |  | Active
Cn1c(N2CCO[C@@H](c3ccc([N+](=O)[O-])cc3)C2)nc(-c2ccncc2F)cc1=O |  | Active
Cn1c(N2CCO[C@@H](c3cccc(NC(=O)C4CC4)c3)C2)nc(-c2ccncc2F)cc1=O |  | Active
Cn1c(N2CCO[C@@H](c3ccc(NC(=O)OCc4ccccc4)cc3)C2)nc(-c2ccncc2F)cc1=O |  | Active
Cn1c(N2CCO[C@@H](c3ccc(NS(=O)(=O)CCl)cc3)C2)nc(-c2ccncc2F)cc1=O |  | Active
CN(C)c1cccc2c(S(=O)(=O)Nc3ccc([C@H]4CN(c5nc(-c6ccncc6F)cc(=O)n5C)CCO4)cc3)cccc12 |  | Active
Cn1c(N2CCO[C@@H](c3ccc(OCCCN4CCCC4)cc3)C2)nc(-c2ccncc2F)cc1=O |  | Active
